In ChEMBL document CHEMBL5728088, “Aryl sulfonohydrazides” (2020):

Test: Biochemical Assay: Active Moz protein was expressed as N-terminal fusion protein with a His6 tag in BL21 E. coli cells. Protein purification was performed via nickel-immobilized metal ion affinity chromatography followed by gel filtration. […] The reactions were performed in assay buffer (100 mM Tris-HCl, pH 7.8, 15 mM NaCl, 1 mM EDTA, 0.01% Tween-20, 1 mM Dithiothreitol, and 0.02% m/v chicken egg white albumin). Reactions were set up with 0.4 μM Acetyl coenzyme A (AcCoA), 50 nM N-terminal histone H4 peptide (sequence […]-GGK-biotin), 10 nM MOZ enzyme, and an acetyl-lysine specific antibody (final dilution 1:10000). 11-point dilution series of the compounds of the invention were prepared in DMSO; a volume of 100 nL was transferred using a pin tool into assay plates containing substrates, before adding enzyme to start the reaction. Positive (no compound) and negative (AcCoA omitted) control reactions were included on the same plates and received the same amount of DMSO as the compound treated wells. After adding all reagents, the plates were sealed with adhesive seals and incubated for 90 minutes at room temperature. An additional 4 μL of assay buffer containing AlphaScreen® Protein A acceptor beads and Streptavidin donor beads (PerkinElmer, Waltham, Mass.) to a final concentration of 4 μg/mL was then added. […]

Row | Structure (SMILES) | IC50
1 | O=C(NNS(=O)(=O)c1ccc2ccccc2c1)c1cccc(-c2cccnc2)c1 | 13.1 µM
2 | O=C(NNS(=O)(=O)c1ccccc1F)c1cc(-c2ccc(F)cc2)ccc1F | 0.839 µM
